Measured values taken from ChEMBL document CHEMBL3885881, “DrugMatrix”.

Species: Rattus norvegicus
Experiment: DrugMatrix - Regimen: Daily Repeat
Type: toxicity, organism-based, Sprague-Dawley
Parameters: regimen Daily Repeat, gender Male, age 6-8 weeks
Details: in vivo, po, route oral GAVAGE, […]; for ABSOLUTE BASOPHIL / ABSOLUTE EOSINOPHIL / ABSOLUTE LYMPHOCYTE / ABSOLUTE MONOCYTE / ABSOLUTE SEGMENTED NEUTROPHIL / BASOPHIL / EOSINOPHIL / ERYTHROCYTE COUNT / HEMATOCRIT / HEMOGLOBIN / LEUKOCYTE COUNT / LYMPHOCYTE / MEAN CORPUSCULAR HEMOGLOBIN / MEAN CORPUSCULAR HEMOGLOBIN CONCENTRATION / MEAN CORPUSCULAR VOLUME / MONOCYTE / NEUTROPHIL / NUCLEATED RED BLOOD CELLS / PLATELET COUNT: tissue Blood; for ALANINE AMINOTRANSFERASE / ALBUMIN / ALKALINE PHOSPHATASE / ASPARTATE AMINOTRANSFERASE / BLOOD UREA NITROGEN / CARBON DIOXIDE / CHLORIDE / CHOLESTEROL / CREATINE PHOSPHOKINASE / CREATININE / GLUCOSE / LACTATE DEHYDROGENASE / LIPASE / PHOSPHORUS / POTASSIUM / SODIUM / TOTAL BILIRUBIN / TOTAL PROTEIN / URIC ACID: tissue Plasma
[1] = 3 mg/kg, 120 h, dose level Low, time 5 day
[2] = 300 mg/kg, 72 h, dose level High, time 3 day
[3] = 300 mg/kg, 120 h, dose level High, time 5 day

CC#C[C@]1(O)CC[C@H]2[C@@H]3CCC4=CC(=O)CCC4=C3[C@@H](c3ccc(N(C)C)cc3)C[C@@]21C [MIFEPRISTONE]
ABSOLUTE BASOPHIL [1]: 0 CELLS/uL
ABSOLUTE EOSINOPHIL [1]: 0 CELLS/uL
ABSOLUTE LYMPHOCYTE [1]: 7739.67 CELLS/uL
ABSOLUTE MONOCYTE [1]: 116.67 CELLS/uL
ABSOLUTE SEGMENTED NEUTROPHIL [1]: 1310.33 CELLS/uL
BASOPHIL [1]: 0%
EOSINOPHIL [1]: 0%
ERYTHROCYTE COUNT [1]: 4.91 x10E6/uL
HEMATOCRIT [1]: 31.8%
HEMOGLOBIN [1]: 12.53 G/DL
LEUKOCYTE COUNT [1]: 9.17 x10E3/uL
LYMPHOCYTE [1]: 84.33%
MEAN CORPUSCULAR HEMOGLOBIN [1]: 25.53 pg
MEAN CORPUSCULAR HEMOGLOBIN CONCENTRATION [1]: 39.43 G/DL
MEAN CORPUSCULAR VOLUME [1]: 64.83 fL
MONOCYTE [1]: 1.33%
NEUTROPHIL [1]: 14.33%
NUCLEATED RED BLOOD CELLS [1]: 0 /100WBC
PLATELET COUNT [1]: 1194.67 x10E3/uL
ALANINE AMINOTRANSFERASE [1]: 61.67 u/L
ALBUMIN [1]: 4.13 G/DL
ALKALINE PHOSPHATASE [1]: 340.33 u/L
ASPARTATE AMINOTRANSFERASE [1]: 84 u/L
BLOOD UREA NITROGEN [1]: 13.33 mg/dL
CARBON DIOXIDE [1]: 30.33 mmol/L
CHLORIDE [1]: 97.67 MEQ/L
CHOLESTEROL [1]: 64.67 mg/dL
CREATINE PHOSPHOKINASE [1]: 193.33 u/L
CREATININE [1]: 0.14 mg/dL
GLUCOSE [1]: 154.33 mg/dL
LACTATE DEHYDROGENASE [1]: 87 u/L
LIPASE [1]: 9.33 u/L
PHOSPHORUS [1]: 10.8 mg/dL
POTASSIUM [1]: 5.65 MEQ/L
SODIUM [1]: 143.37 MEQ/L
TOTAL BILIRUBIN [1]: 0.13 mg/dL
TOTAL PROTEIN [1]: 5.9 G/DL
URIC ACID [1]: 0.73 mg/dL
ABSOLUTE BASOPHIL [2]: 0 CELLS/uL
ABSOLUTE EOSINOPHIL [2]: 0 CELLS/uL
ABSOLUTE LYMPHOCYTE [2]: 6590.67 CELLS/uL
ABSOLUTE MONOCYTE [2]: 75.33 CELLS/uL
ABSOLUTE SEGMENTED NEUTROPHIL [2]: 634 CELLS/uL
BASOPHIL [2]: 0%
EOSINOPHIL [2]: 0%
ERYTHROCYTE COUNT [2]: 5.5 x10E6/uL
HEMATOCRIT [2]: 33.8%
HEMOGLOBIN [2]: 13.33 G/DL
LEUKOCYTE COUNT [2]: 7.3 x10E3/uL
LYMPHOCYTE [2]: 90.67%
MEAN CORPUSCULAR HEMOGLOBIN [2]: 24.3 pg
MEAN CORPUSCULAR HEMOGLOBIN CONCENTRATION [2]: 39.47 G/DL
MEAN CORPUSCULAR VOLUME [2]: 61.57 fL
MONOCYTE [2]: 1%
NEUTROPHIL [2]: 8.33%
NUCLEATED RED BLOOD CELLS [2]: 0 /100WBC
PLATELET COUNT [2]: 1129.67 x10E3/uL
ALANINE AMINOTRANSFERASE [2]: 63 u/L
ALBUMIN [2]: 3.77 G/DL
ALKALINE PHOSPHATASE [2]: 417.67 u/L
ASPARTATE AMINOTRANSFERASE [2]: 107.67 u/L
BLOOD UREA NITROGEN [2]: 14.33 mg/dL
CARBON DIOXIDE [2]: 28 mmol/L
CHLORIDE [2]: 102.67 MEQ/L
CHOLESTEROL [2]: 54.33 mg/dL
CREATINE PHOSPHOKINASE [2]: 371.67 u/L
CREATININE [2]: 0.32 mg/dL
GLUCOSE [2]: 160.67 mg/dL
LACTATE DEHYDROGENASE [2]: 97.67 u/L
LIPASE [2]: 11 u/L
PHOSPHORUS [2]: 9.53 mg/dL
POTASSIUM [2]: 4.8 MEQ/L
SODIUM [2]: 144.33 MEQ/L
TOTAL BILIRUBIN [2]: 0.17 mg/dL
TOTAL PROTEIN [2]: 5.53 G/DL
URIC ACID [2]: 0.37 mg/dL
ABSOLUTE BASOPHIL [3]: 0 CELLS/uL
ABSOLUTE EOSINOPHIL [3]: 48.67 CELLS/uL
ABSOLUTE LYMPHOCYTE [3]: 8343 CELLS/uL
ABSOLUTE MONOCYTE [3]: 151.67 CELLS/uL
ABSOLUTE SEGMENTED NEUTROPHIL [3]: 790 CELLS/uL
BASOPHIL [3]: 0%
EOSINOPHIL [3]: 0.67%
ERYTHROCYTE COUNT [3]: 5.36 x10E6/uL
HEMATOCRIT [3]: 32.73%
HEMOGLOBIN [3]: 12.93 G/DL
LEUKOCYTE COUNT [3]: 9.33 x10E3/uL
LYMPHOCYTE [3]: 89%
MEAN CORPUSCULAR HEMOGLOBIN [3]: 24.17 pg
MEAN CORPUSCULAR HEMOGLOBIN CONCENTRATION [3]: 39.53 G/DL
MEAN CORPUSCULAR VOLUME [3]: 61.13 fL
MONOCYTE [3]: 1.67%
NEUTROPHIL [3]: 8.67%
NUCLEATED RED BLOOD CELLS [3]: 0 /100WBC
PLATELET COUNT [3]: 1290.33 x10E3/uL
ALANINE AMINOTRANSFERASE [3]: 84.33 u/L
ALBUMIN [3]: 3.8 G/DL
ALKALINE PHOSPHATASE [3]: 386 u/L
ASPARTATE AMINOTRANSFERASE [3]: 91 u/L
BLOOD UREA NITROGEN [3]: 15.33 mg/dL
CARBON DIOXIDE [3]: 30.33 mmol/L
CHLORIDE [3]: 97.67 MEQ/L
CHOLESTEROL [3]: 86 mg/dL
CREATINE PHOSPHOKINASE [3]: 250 u/L
CREATININE [3]: 0.3 mg/dL
GLUCOSE [3]: 148.33 mg/dL
LACTATE DEHYDROGENASE [3]: 74.67 u/L
LIPASE [3]: 25.67 u/L
PHOSPHORUS [3]: 8.03 mg/dL
POTASSIUM [3]: 5.82 MEQ/L
SODIUM [3]: 142.7 MEQ/L
TOTAL BILIRUBIN [3]: 0.1 mg/dL
TOTAL PROTEIN [3]: 6 G/DL
URIC ACID [3]: 0.3 mg/dL
